Assay results as given in patent publication US8586573B2, “N-(Aminoheteroaryl)-1H-indole-2-carboxamide derivatives, and preparation and therapeutic application thereof” (Sanofi, priority 2006, dated 2013).

How the values were obtained:
[1] = target: T1, TRPV1 receptor (Rattus norvegicus, UniProt O35433); experiment: Inhibition of the current induced by capsaicin on rat DRGs (whole-cell patch-clamp); type: cell-based; settings: DRG neuron, inhibition of control capsaicin (1 microM) response, newborn rat DRG neurons; for inhibition at 0.001 µM: compound at 1 nM; for inhibition at 0.01 µM: compound at 10 nM
T1 construct: The neurons of the DRG naturally express the TRPV1 receptor; endogenous in cells; host or cells: primary culture of newborn rat dorsal root ganglion neurons
Experimental: Test for Inhibition of the Current Induced by Capsaicin on Rat DRGs
• Primary culture of rat dorsal root ganglion (DRG) cells:
The neurons of the DRG naturally express the TRPV1 receptor.
Newborn rat DRG primary cultures are prepared from one-day-old rat pups. Briefly, after dissection, the ganglia are trypsinized and the cells are mechanically dissociated by controlled trituration. The cells are resuspended in an Eagle's basal culture medium containing 10% of foetal calf serum, 25 mM KCl, 2 mM glutamine, 100 μg/ml gentamycin and 50 ng/ml of NGF, and then deposited onto laminin-coated glass cover slips (0.25×10^6 cells per cover slip) which are then placed in 12-well Corning dishes. The cells are incubated at 37° C. in a humidified atmosphere containing 5% CO2 and 95% air. Cytosine β-D-arabinoside (1 μM) is added 48 h after placing in culture, in order to prevent the development of non-neuronal cells. The cover slips are transferred into the experimental chambers for the patch-clamp studies after 7-10 days of culture. • Electrophysiology:
The measuring chambers (volume 800 μl) containing the cell preparation are placed on the platform of an inverted microscope (Olympus IMT2) equipped with Hoffman optics (Modulation Contrast, New York) and observed at the magnification of ×400. The chambers are continually perfused by gravity (2.5 ml/min) by means of a solution distributing device with 8 inlets, and the sole outlet of which, consisting of a polyethylene tube (500 μm aperture), is placed at least 3 mm from the cell studied. The “whole cell” configuration of the patch-clamp technique was used. The borosilicate glass pipettes (resistance 5-10 MOhms) are moved close to the cell by means of a 3D piezoelectric micromanipulator (Burleigh, PC1000). The overall currents (membrane potential fixed at −60 mV) are recorded with an Axopatch 1D amplifier (Axon Instruments, Foster city, Calif.), connected to a PC control by Pclamp8 software (Axon Instrument). The current traces are recorded on paper and simultaneously digitized (sampling frequency […]) and acquired on the hard drive of the PC.
The application of a micromolar solution of capsaicin causes, on the DRG cells (voltage fixed at −70 mV), an inward cationic current. In order to minimize the desensitization of the receptors, a minimum period of one minute is observed between two applications of capsaicin. After a controlled period (stabilization of the capsaicin response alone), the compounds to be tested are applied alone at a given concentration (concentration of 10 nM or of […]) for a period of 4 to 5 minutes, during which several capsaicin+compound tests are carried out (obtaining of maximum inhibition). The results are expressed as % inhibition of the control capsaicin response.

[2] = target: T2, TRPV1 receptors (Mus musculus, UniProt Q704Y3); experiment: Mouse corneal irritation test (capsaicin-induced eye rubbing); type: in vivo; settings: compound 500 μM, 2 μl local application to cornea 10 min before capsaicin 160 μM; eye rubs counted over 2 min
T2 construct: from tissue; host or cells: cornea of the living mouse (in vivo)
Experimental: Mouse Corneal Irritation Test
The irritant nature of capsaicin can be readily assessed at the level of the cornea since this organ is one of the most innervated by C fibres. In this context, according to preliminary experiments, the application of a very small amount of capsaicin (2 μl at a concentration of 160 μM) to the surface of the cornea of an animal results in a certain number of stereotyped behaviors associated with the irritation and that can be readily listed. Among these are: blinking of the eye, rubbing of the instilled eye with the ipsilateral forelimb, rubbing of the face with both forelimbs, scratching of the ipsilateral face with the hind limb. […]
In practice, the product to be tested, prepared at 25 mM in DMSO and diluted for its final use in physiological serum with 10% Tween 80, at the highest concentration of 500 μM, is administered by local application to the surface of the cornea in a volume of 2 μl, 10 minutes before the application of the capsaicin. […] Over the course of a period of observation of 2 minutes following the instillation, the number of times the instilled eye is rubbed by the ipsilateral forelimb is counted for each animal. For each given group, the percentage protection is calculated as follows: P=100−((average number of scratches of the group treated with the compound/average number of scratches of the group treated with the solvent)×100) […]

T1 sequence (O35433 whole entry): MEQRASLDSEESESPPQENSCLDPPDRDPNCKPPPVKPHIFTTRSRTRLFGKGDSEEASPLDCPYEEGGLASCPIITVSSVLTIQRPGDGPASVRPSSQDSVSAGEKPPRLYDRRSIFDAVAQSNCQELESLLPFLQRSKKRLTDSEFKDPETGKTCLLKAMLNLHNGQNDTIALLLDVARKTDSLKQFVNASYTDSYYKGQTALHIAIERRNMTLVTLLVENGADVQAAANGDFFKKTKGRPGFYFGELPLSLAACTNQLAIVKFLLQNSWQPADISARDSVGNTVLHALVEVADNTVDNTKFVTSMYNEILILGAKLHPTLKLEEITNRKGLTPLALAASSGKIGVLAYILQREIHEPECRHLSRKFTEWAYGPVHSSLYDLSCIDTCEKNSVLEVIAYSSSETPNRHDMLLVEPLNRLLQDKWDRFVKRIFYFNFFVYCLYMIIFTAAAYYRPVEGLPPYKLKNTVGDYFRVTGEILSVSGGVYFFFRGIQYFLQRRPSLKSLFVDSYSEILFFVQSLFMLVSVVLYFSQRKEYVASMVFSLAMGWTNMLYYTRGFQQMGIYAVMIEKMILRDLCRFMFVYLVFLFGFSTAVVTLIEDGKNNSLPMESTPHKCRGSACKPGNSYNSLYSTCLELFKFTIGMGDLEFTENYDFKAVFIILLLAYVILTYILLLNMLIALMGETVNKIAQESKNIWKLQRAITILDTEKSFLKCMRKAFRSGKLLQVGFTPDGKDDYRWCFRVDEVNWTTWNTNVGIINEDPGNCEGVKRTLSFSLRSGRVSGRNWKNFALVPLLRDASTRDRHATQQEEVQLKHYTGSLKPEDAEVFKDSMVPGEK
T2 sequence (Q704Y3 whole entry): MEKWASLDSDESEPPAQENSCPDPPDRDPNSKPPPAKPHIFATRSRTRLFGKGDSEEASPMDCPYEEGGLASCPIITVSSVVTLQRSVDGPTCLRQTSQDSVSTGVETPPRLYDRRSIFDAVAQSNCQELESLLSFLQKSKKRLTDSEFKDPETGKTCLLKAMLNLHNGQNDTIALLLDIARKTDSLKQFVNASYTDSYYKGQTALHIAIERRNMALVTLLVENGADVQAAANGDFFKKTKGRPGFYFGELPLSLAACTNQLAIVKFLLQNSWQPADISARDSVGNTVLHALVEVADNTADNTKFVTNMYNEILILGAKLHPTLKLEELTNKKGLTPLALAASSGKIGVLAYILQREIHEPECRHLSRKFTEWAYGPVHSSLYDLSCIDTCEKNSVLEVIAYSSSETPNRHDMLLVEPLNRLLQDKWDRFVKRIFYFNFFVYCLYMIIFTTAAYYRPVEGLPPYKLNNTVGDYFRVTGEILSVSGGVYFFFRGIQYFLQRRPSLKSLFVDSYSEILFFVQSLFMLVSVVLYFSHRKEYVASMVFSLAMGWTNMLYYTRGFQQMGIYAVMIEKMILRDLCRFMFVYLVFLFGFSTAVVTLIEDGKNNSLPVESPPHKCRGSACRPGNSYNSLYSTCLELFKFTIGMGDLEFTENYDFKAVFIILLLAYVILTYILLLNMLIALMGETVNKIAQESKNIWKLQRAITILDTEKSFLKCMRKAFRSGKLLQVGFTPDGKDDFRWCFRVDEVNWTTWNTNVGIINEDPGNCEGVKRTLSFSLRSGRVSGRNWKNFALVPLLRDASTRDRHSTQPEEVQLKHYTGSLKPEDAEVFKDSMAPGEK

inhibition at 0.001 µM [1]	melting point	inhibition at 0.01 µM [1]	SMILES	% P 500 μM (percentage protection) [2]
46%	199 to 201 °C		O=C(Nc1ccc(N2CCCC2)nc1)c1cc2cc(F)ccc2n1Cc1cccc(F)c1 [Compound 2, N-[6-(pyrrolidin-1-yl)pyridin-3-yl]-5-fluoro-1-(3-fluorobenzyl)-1H-indole-2-carboxamide]	72%
89%			O=C(Nc1ccc(N2CCC2)nc1)c1cc2cc(F)ccc2n1Cc1cccc(F)c1 [Compound 4, N-[6-(azetidin-1-yl)pyridin-3-yl]-5-fluoro-1-(3-fluorobenzyl)-1H-indole-2-carboxamide]	
		85%	O=C(Nc1ccc(N2CCC(O)C2)nc1)c1cc2cc(F)ccc2n1Cc1cccc(F)c1 (stereo not shown) [Compound 7, N-[6-(3-hydroxypyrrolidin-1-yl)pyridin-3-yl]-5-fluoro-1-(3-fluorobenzyl)-1H-indole-2-carboxamide]	
	220 to 222 °C	79%	O=C(Nc1cnc(N2CCCC2)nc1)c1cc2cc(F)ccc2n1Cc1cccc(F)c1 [Compound 21, N-[2-(pyrrolidin-1-yl)pyrimidin-5-yl]-5-fluoro-1-(3-fluorobenzyl)-1H-indole-2-carboxamide]	
